Target: T1, HIV-1 protease (Human immunodeficiency virus type 1 group M subtype B, UniProt P04585)
T1 construct: made in house; host or cells: E. coli BL21 (dE3)pLysS, pET30a vector
Experiment: HIV-1 Protease Inhibition Assay
Format: biochemical
From the text: Assays of the dose-response effect of inhibitor compounds can be described as a curve expressing a degree of inhibition as a function of concentration. The curve theoretically passes through a point at which the concentration is sufficient to reduce activity of the HIV protease enzyme to a level that is 50% that of the difference between minimal and maximal enzyme activity in the assay.
HIV-1 Protease Inhibition Assay
The HIV-1 protease gene was subcloned into the pET30a vector (Novagen) and then transformed into BL21 (dE3)pLysS cells for protein expression. Protein expression and purification were followed according to Tang's procedure (Hong et al., Biochemistry, 1996, 35, 10627-10633). […] The inclusion body containing some bacterial proteins was thoroughly washed by using TRITON X-100, solubilized in […] and passed through the Q-sepharose column to remove the bacterial proteins which interfered with subsequent refolding steps. HIV-1 protease was refolded from the urea to an active form by dialysis. As a final step, gel filtration chromatography was used to remove impurities after refolding. Activities of purified HIV-1 protease were examined using a fluorogenic substrate, 2-aminobenzoyl-Thr-Ile-Nle-Phe(pNO2)-Gln-Arg-NH2 (Novabiochem). […] In the condition of So<<Km, v=Eo(kcat/Km)So, where Eo is the total enzyme concentration, and So is the substrate concentrate. […] Assays are carried out as described by Toth and Marshall (Toth et al., Int. J. Pept. Protein Res., 1990, 36, 544-50).

[1] = cells marked (pM) in a column headed nM

Structure (SMILES)	IC50 (fluorogenic substrate assay) [pM]	Ki (fluorogenic substrate assay) [nM]	IC50 [1] [pM]
CN(C)CCN(C[C@@H](O)[C@H](Cc1ccccc1)NC(=O)OC1CC2CCO[C@@H]2C1)S(=O)(=O)c1ccc(F)c(N)c1 (some centres unmarked) [Compound 180]	1.5e+06	472	
CC(C)CN(C[C@@H](O)[C@H](Cc1ccccc1)NC(=O)OC1CC2CCO[C@@H]2C1)C(=O)c1cc(O)cc(O)c1 (some centres unmarked) [Compound 134]	3e+06	931	
C=CCCCCN(C[C@@H](O)[C@H](Cc1ccccc1)NC(=O)O[C@H]1CO[C@H]2OCCC21)S(=O)(=O)c1cccc(OCCCC=C)c1 (some centres unmarked) [Compound 225]	8100	2.5	
COc1ccc(S(=O)(=O)N(C[C@@H](O)[C@H](Cc2ccccc2)NC(=O)O[C@H]2CO[C@H]3OCCC32)C2CN(C)C2)cc1 (some centres unmarked) [Compound 201]	5600	1.7	
CC(C)(C)NC(=O)[C@@H]1C[C@@H]2CCCC[C@@H]2CN1C[C@@H](O)[C@H](Cc1ccccc1)NC(=O)O[C@H]1CCC2(CCCO2)C1 (some centres unmarked) [Compound 145a]	500000		
Nc1ccc(S(=O)(=O)N(C[C@H]2CCC(=O)N2)C[C@@H](O)[C@H](Cc2ccccc2)NC(=O)OC2CC[C@H]3OCC[C@@H]23)cc1 (some centres unmarked) [Compound 281]			26
CC(C)CN(C[C@@H](O)[C@H](Cc1ccccc1)NC(=O)OC1CC2CCO[C@@H]2C1)S(=O)(=O)c1ccc(F)c(N)c1 (some centres unmarked) [Compound 179]	6400	2	
O=C(N[C@@H](Cc1ccccc1)[C@H](O)CN1CCCC/C=C/CCCOc2cccc(c2)S1(=O)=O)O[C@H]1CO[C@H]2OCCC21 (some centres unmarked) [Compound 225a]	7800	2.4	
Cc1ccc(S(=O)(=O)N(CC(C)C)C[C@@H](O)[C@H](CC2CCN(C(=O)c3ccccc3)CC2)NC(=O)OC2CCCC23CCCO3)cc1 (some centres unmarked) [Compound 148]	185000		
CNCc1ccc(S(=O)(=O)N(CC(C)C)C[C@@H](O)[C@H](Cc2ccccc2)NC(=O)OC2CC3CCO[C@@H]3C2)cc1 (some centres unmarked) [Compound 126]	15000		
CC(C)CN(C[C@@H](O)[C@H](Cc1ccccc1)NC(=O)OC1CC2CCO[C@@H]2C1)S(=O)(=O)c1cc(O)cc(O)c1 (some centres unmarked) [Compound 100]	247000	77	
CC(C)CN(C[C@@H](O)[C@H](Cc1ccccc1)NC(=O)O[C@@H]1CC2CCO[C@@H]2C1)NS(=O)(=O)c1ccc(F)c([N+](=O)[O-])c1 (some centres unmarked) [Compound 184]	1.2e+06	351	
CC(C)CN(C[C@@H](O)[C@H](Cc1ccccc1)NC(=O)O[C@@H]1CC2CCO[C@@H]2C1)S(=O)(=O)c1ccc(O)c(O)c1 (some centres unmarked) [Compound 258]	3900		
O=C(N[C@@H](Cc1ccccc1)[C@H](O)CN1CCC/C=C\CCCCOc2ccccc2COC1=O)O[C@@H]1CC2CCO[C@@H]2C1 (some centres unmarked) [Compound 227]	495000	154	
Cc1ccc(S(=O)(=O)N(CCN(C)C)C[C@@H](O)[C@H](Cc2ccccc2)NC(=O)OC2CO[C@H]3OCCC23)cc1CO (some centres unmarked) [Compound 158]	105000	32	
Cc1ccc(S(=O)(=O)N(CC(C)C)C[C@@H](O)[C@H](CC2CCN(Cc3ccccc3)CC2)NC(=O)OC2CO[C@H]3OCCC23)cc1 (some centres unmarked) [Compound 149]	20000		
C=CCCCCN(C[C@@H](O)[C@H](Cc1ccccc1)NC(=O)O[C@@H]1CC2CCO[C@@H]2C1)S(=O)(=O)c1cccc(C(O)CC=C)c1 (some centres unmarked) [Compound 237]	10000	3.1	
C=CCCCCN(C[C@@H](O)[C@H](Cc1ccccc1)NC(=O)O[C@H]1CO[C@H]2OCCC21)S(=O)(=O)c1cccc(OCCC=C)c1 (some centres unmarked) [Compound 232]	5400	1.7	
CC(C)CN(C[C@@H](O)[C@H](Cc1ccccc1)NC(=O)OC1CC2CCO[C@@H]2C1)S(=O)(=O)c1cccc(CO)c1 (some centres unmarked) [Compound 113]	4000		

Structure (SMILES)	IC50 (fluorogenic substrate assay) [pM]	Ki (fluorogenic substrate assay) [nM]	IC50 [1] [pM]
O=C(N[C@@H](Cc1ccccc1)[C@H](O)CN1CCCCCCCOc2cccc(c2)S1(=O)=O)O[C@H]1CO[C@H]2OCCC21 (some centres unmarked) [Compound 231]	8600	2.7	
Nc1ccc(S(=O)(=O)N(C[C@H]2CCC(=O)N2)C[C@@H](O)[C@H](Cc2ccccc2)NC(=O)OC2CO[C@H]3OCC[C@@H]23)cc1 (some centres unmarked) [Compound 276]			20
CC(C)CN(C[C@@H](O)[C@H](Cc1ccccc1)NC(=O)OC1CO[C@H]2OCCC12)S(=O)(=O)c1cncc(N)c1 (some centres unmarked) [Compound 166]	910	0.28	
CC(C)(C)OC(=O)NN(C[C@@H](O)[C@H](Cc1ccccc1)NC(=O)O[C@@H]1CC2CCO[C@@H]2C1)S(=O)(=O)c1ccc(F)c(N)c1 (some centres unmarked) [Compound 191]	9600	3	
CC(C)CN(C[C@@H](O)[C@H](Cc1ccccc1)NC(=O)O[C@@H]1CC2CCO[C@@H]2C1)S(=O)(=O)c1ccc(N)cc1 (some centres unmarked) [Compound 261]	2200		
COc1ccc(S(=O)(=O)N(C[C@@H](O)[C@H](Cc2ccccc2)NC(=O)OC(C)(C)C)NC(=O)OC(C)(C)C)cc1 [Compound 187]	534000	166	
O=C(N[C@@H](Cc1ccccc1)[C@H](O)CN1CCCC/C=C\COc2cccc(c2)S1(=O)=O)O[C@@H]1CC2CCO[C@@H]2C1 (some centres unmarked) [Compound 225g]	10000	3.1	
COc1ccc(S(=O)(=O)N(C[C@@H](O)[C@H](Cc2ccccc2)NC(=O)O[C@@H]2CO[C@@H]3OCC[C@@H]32)C2CN(C)C2)cc1 [Compound 202]	31000	9.7	
O=C(N[C@@H](Cc1ccccc1)[C@H](O)CN1CCCC/C=C/CCCC(O)c2cccc(c2)S1(=O)=O)OCc1cccnc1 (some centres unmarked) [Compound 239]	34000	11	
CC(C)(C)OC(=O)NN(C[C@@H](O)[C@H](Cc1ccccc1)NC(=O)O[C@H]1CO[C@H]2OCCC21)S(=O)(=O)c1ccc(F)c(N)c1 (some centres unmarked) [Compound 190]	3500	1.1	
COc1ccc(S(=O)(=O)N(C[C@@H](O)[C@H](Cc2ccccc2)NC(=O)O[C@H]2CCOC2)C2CN(C)C2)cc1 [Compound 206]	109000	34	
CC(C)(C)NC(=O)[C@@H]1C[C@@H]2CCCC[C@@H]2CN1C[C@@H](O)[C@H](Cc1ccccc1)NC(=O)OC1CC2CCO[C@@H]2C1 (some centres unmarked) [Compound 143]	3000		
CC(C)CN(C[C@@H](O)[C@H](Cc1ccccc1)NC(=O)OC(C)(C)C)S(=O)(=O)c1cncc(N)c1 [Compound 164]	33000	10	
COc1ccc(S(=O)(=O)N(C[C@@H]2CCC(=O)N2)C[C@@H](O)[C@H](Cc2ccccc2)NC(=O)OC(C)(C)C)cc1 [Compound 272]	3420		
O=C(N[C@@H](Cc1ccccc1)[C@H](O)CN1CCCC/C=C\CCOc2cccc(c2)S1(=O)=O)O[C@H]1CO[C@H]2OCCC21 (some centres unmarked) [Compound 233]	8700	2.7	
COc1ccc(S(=O)(=O)NN(CC(C)C)C[C@@H](O)[C@H](Cc2ccccc2)NC(=O)O[C@H]2CO[C@H]3OCCC32)cc1 (some centres unmarked) [Compound 185]	312000	97	
CC(C)CN(C[C@@H](O)[C@H](Cc1ccccc1)NC(=O)O[C@@H]1CC2CCO[C@@H]2C1)S(=O)(=O)c1cccc(/C=N/O)c1 (some centres unmarked) [Compound 257]	2900		
Cc1ccc(S(=O)(=O)N(C[C@@H](O)[C@H](Cc2ccccc2)NC(=O)OC2CO[C@H]3OCCC23)C2CCOC2)cc1CO (some centres unmarked) [Compound 161]	2000	1.6	

From patent US20070082883A1, “HIV protease inhibitors” (THE BOARD OF TRUSTEES OF THE UNIVERSITY OF ILLINOIS, priority 2002, published 2007)
